This is an account of results in US8846628B2, “Oral formulations of cytidine analogs and methods of use thereof” (Celgene Corporation, priority 2008, dated 2014).

SMILES strings stand for the structures. Entries after “also recorded” stand apart in the source; their conditions may differ.

The conditions of data set [1]: in vivo.
The next data set in a line: clinical. The settings on record: human, in vivo.
Data set [2] is described as follows: Rapid Aza Clinical Evaluation (RACE) study CL008: plasma PK. The class given is in vivo. The settings on record: human; for AUC(0-t) / AUC(0-inf): sc; for AUC(0-t): 75 mg/m^2, one subject (Formulation 4 cohort), SC 75 mg/m^2 (124 mg); for AUC(0-inf): SC 75 mg/m^2 (120 mg). The method, then:
Several oral formulations were evaluated in this study. A “3+7” cohort of patients was enrolled in the study, i.e., three patients were initially tested per formulation, and the cohorts could increase in size up to ten patients. Cohorts were enrolled in parallel.

Data set [3] concerns patients with MDS or AML. As to conditions: in vivo.
Data set [4] has as its system patients with MDS or AML. Briefly: MTD study CL005: hematological response, IWG criteria. The class given is in vivo, human. The text has this:
Assessment of IWG criteria for certain patients in the MTD study is presented below in Table 10.

The term AUC denotes the area under the concentration-time curve, a measure of exposure. The bioavailability is the share of a dose that reaches the circulation, judged against a reference dose that is usually intravenous. A high value points to much systemic uptake. By AUC(0-inf) is commonly meant total exposure, with the tail of the curve extrapolated. The low end stands for less exposure, the high end for more exposure. As a reminder, the AUC(0-t) is the area under the concentration-time curve up to a stated or last time point. A high value points to more exposure. In general, Cmax refers to the maximum level reached in the sampled fluid or tissue. What is called Tmax is the time at which the peak concentration occurs. In general, half-life refers to the time needed for the level to fall by half in the phase considered. On to `Nc1ncn([C@@H]2O[C@H](CO)[C@@H](O)[C@H]2O)c(=O)n1` [azacitidine, 4-amino-1-β-D-ribofuranosyl-1,3,5-triazin-2(1H)-one], for which the “dose proportionality of exposure” value in data set [1] is given as “did not result in dose-proportional increase in exposure”. Besides, the AUC in “clinical” (po, 180 mg) is 330 ng·h/mL; in the data set “clinical” (sc, 75 mg/m2) it was 1000 ng·h/mL; in data set [2] (75 mg/m^2, one subject (Formulation 6 cohort), following SC dosing, read-out: AUC (rounded)), approximately 1700 ng·h/mL. In “clinical” (po, 180 mg), this compound showed a bioavailability of 30%. For the same compound, the AUC(0-inf) in the data set “clinical” (sc, 75 mg/m2, AUC(0-inf)) was found to be 1210 ng·h/mL; in data set [2] (75 mg/m^2, one subject (Formulation 6 cohort), day 1), 1720 ng·h/mL; in data set [2] (75 mg/m^2, one subject (Formulation 6 cohort), day 15) it was 1640 ng·h/mL. Further, the AUC(0-t) in “clinical” (sc, 75 mg/m2, AUC(0-t)) came to 1140 ng·h/mL; in data set [2] (day 1) it was 2390 ng·h/mL; in data set [2] (day 15) it was 2440 ng·h/mL. Also, the Cmax in the data set “clinical” (sc, 75 mg/m2, Cmax) came out at 697 ng/mL. For the same compound, the Tmax in “clinical” (sc, 75 mg/m2, Tmax) was determined as 30.6 min. Besides, the half-life in “clinical” (sc, 75 mg/m2, t½) was 104 min. Moreover, in the data set with patients with MDS or AML [3], the “dose limited toxicity (DLT)” value is listed as “none of the patients have shown dose limited toxicity (DLT)”. Besides, the “IWG Assessment” value was “morphologic complete response (CR); also recorded: Per IWG 2006 criteria, the patient achieved complete response (CR); also recorded: achieved morphologic complete response per the IWG AML criteria; also recorded: with regard to the ANC condition for the IWG 2000 CR criteria, the patient did not meet the criteria for a complete response; also recorded: CR per IWG 2006 (Days 45-98); also recorded: Morphologic CR per the IWG AML criteria (Diagnosis is MDS)” with patients with MDS or AML [4] (Patient 02004 (MDS), SC cycle 1, then oral 120 mg x7d Formulation #1 Cycles 2-6, 180 mg x7d Cycles 7-12); “HI-P major improvement per IWG 2000 (Days 35-202)” in the data set with patients with MDS or AML [4] (Patient 02007 (CMML), Cohort 4, oral 240 mg Formulation #3 after SC cycle 1, per IWG 2000 criteria); “HI-P major improvement per IWG 2000 (Days 34-110)” with patients with MDS or AML [4] (Patient 02008 (MDS RAEB-1), Cohort 4, oral 240 mg Formulation #3 after SC cycle 1); “Marrow CR (Days 7-111+) per IWG 2006” in the data set with patients with MDS or AML [4] (Patient 02009 (MDS RAEB-2), Cohort 4, oral 240 mg Formulation #3 after SC cycle 1); “Marrow CR (Days 7-177+) per IWG 2006” in the data set on patients with MDS or AML [4] (Patient 02011 (MDS RAEB-1), Cohort 5, oral 300 mg Formulation #3 after SC cycle 1, per IWG 2006 criteria); “Morphologic CR per the revised IWG AML criteria on Day 21” in the data set with patients with MDS or AML [4] (Patient 02011 (MDS RAEB-1), Cohort 5, oral 300 mg Formulation #3 after SC cycle 1, per revised IWG AML criteria). Besides, the platelets versus baseline entry in the data set on patients with MDS or AML [4] (Patient 02007, oral azacitidine starting with cycle 2 (Formulation #3, 240 mg)) was “increase in platelets above the baseline levels”.
